# Source: US12343472B2, “Powder preparation, cartridge, and device” (Shin Nippon Biomedical Laboratories, Ltd., priority 2018, dated 2025)
# Several values for one entry are separate records, joined by “and”; a condition that tells them apart may be missing. Identical values can stand only once. Like-named read-outs stand apart in the source and are kept apart here.
# What was measured:
# [1] = Blood oxytocin concentration in monkey (EIA); type: in vivo, cynomolgus monkey; details: for AUC0-t / Cmax: blood oxytocin
# Description: (§1) In order to measure the blood oxytocin concentration, blood was collected from the femoral vein with a syringe (dispensed into an EDTA-2K-containing blood collection tube) before administration and 2, 5, 10, 30, 60, 120, 240 and 480 minutes after administration (9 times in total). In order to measure the cerebrospinal fluid oxytocin concentration, cerebrospinal fluid was collected via a catheter indwelled in the cisterna magna before administration and 10, 30, 60, 120, 240 and 480 minutes after administration (7 times in total). The oxytocin concentration was measured by an EIA method involving an Oxytocin Enzyme Immunoassay Kit: Extraction-Free (Peninsula Laboratories International). This test was performed after being approved by the Animal Experimentation Ethics Committee of SNBL, Ltd.
# in vivo = details: male, cynomolgus monkey, iv
# Description: as §1
# [2] = intravenous, individual animals
compound,measurement,setting,value
"CC[C@H](C)[C@@H]1NC(=O)[C@H](Cc2ccc(O)cc2)NC(=O)[C@@H](N)CSSC[C@@H](C(=O)N2CCC[C@H]2C(=O)N[C@@H](CC(C)C)C(=O)NCC(N)=O)NC(=O)[C@H](CC(N)=O)NC(=O)[C@H](CCC(N)=O)NC1=O [Comparative Example 13, oxytocin]",Blood oxytocin concentration,"[1]; 2 min, oxytocin solution (0.4 mg/mL) intravenous, individual animals",222.00 ng/mL and 246.00 ng/mL and 205.00 ng/mL and 168.00 ng/mL and 202.00 ng/mL and 190.00 ng/mL
same,Blood oxytocin concentration,"[1]; 5 min, intravenous, individual animals",110.00 ng/mL and 101.00 ng/mL and 116.00 ng/mL and 68.00 ng/mL and 68.40 ng/mL and 105.00 ng/mL
same,Blood oxytocin concentration,"[1]; 10 min, intravenous, individual animals",48.40 ng/mL and 64.20 ng/mL and 55.10 ng/mL and 40.40 ng/mL and 50.00 ng/mL and 55.70 ng/mL
same,Blood oxytocin concentration,"[1]; 30 min, intravenous, individual animals",10.50 ng/mL and 15.00 ng/mL and 11.80 ng/mL and 7.10 ng/mL and 9.60 ng/mL and 11.60 ng/mL
same,Blood oxytocin concentration,"[1]; 60 min, intravenous, individual animals",2.80 ng/mL (2×) and 4.50 ng/mL and 2.90 ng/mL and 2.50 ng/mL and 2.60 ng/mL
same,Blood oxytocin concentration,"[1]; 120 min, intravenous, individual animals",0.00 ng/mL (5×) and 1.10 ng/mL
same,Blood oxytocin concentration,"[1]; 240 min, intravenous, average n=6",0.00 ng/mL
same,Blood oxytocin concentration,"[1]; 240 min, intravenous, individual animals",0.00 ng/mL
same,Blood oxytocin concentration,"[1]; 480 min, intravenous, average n=6",0.00 ng/mL
same,Blood oxytocin concentration,"[1]; 480 min, intravenous, individual animals",0.00 ng/mL
same,AUC0-t,[1]; [2],47.345 ng·h/mL and 39.252 ng·h/mL and 28.695 ng·h/mL and 34.345 ng·h/mL and 37.415 ng·h/mL
same,Cmax,[1]; [2],246.00 ng/mL and 205.00 ng/mL and 168.00 ng/mL and 202.00 ng/mL and 190.00 ng/mL
same,AUC0-t,"[1]; male, cynomolgus monkey, blood, iv, intravenous, average n=6, read-out: AUC0-t (converted)",37.5 ng·h/mL
same,Cmax,"[1]; male, cynomolgus monkey, blood, iv, intravenous, average n=6, read-out: Cmax",206 ng/mL
same,AUC0-t,"[1]; male, cynomolgus monkey, blood, iv, intravenous, individual animals, read-out: AUC0-t (converted)",38.1 ng·h/mL
same,Cmax,"[1]; male, cynomolgus monkey, blood, iv, intravenous, individual animals, read-out: Cmax",222 ng/mL
same,level at […],"[1]; male, cynomolgus monkey, blood, 2 min, intravenous, average n=6",206 ng/mL
same,level at […],"[1]; male, cynomolgus monkey, blood, 5 min, intravenous, average n=6",94.7 ng/mL
same,level at […],"[1]; male, cynomolgus monkey, blood, 10 min, intravenous, average n=6",52.3 ng/mL
same,level at 0.5 h,"[1]; male, cynomolgus monkey, blood, 30 min, intravenous, average n=6",10.9 ng/mL
same,level at 1 h,"[1]; male, cynomolgus monkey, blood, 60 min, intravenous, average n=6",3.02 ng/mL
same,level at 2 h,"[1]; male, cynomolgus monkey, blood, 120 min, intravenous, average n=6",0.18 ng/mL
same,level at 0.5 h,in vivo,0.204 ng/mL
same,level at 1 h,in vivo,0.11 ng/mL
same,level at 2 h,in vivo,0.057 ng/mL
same,level at 4 h,in vivo,0.005 ng/mL
